Test results: PubChem BioAssay (NCI)
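Briefly, cells in 96-well plates were exposed to five compound concentrations for 48 h, and endpoints were estimated by linear interpolation. The concentration for 50% growth inhibition is given as GI50. Definition used: TGI = concentration required for complete inhibition of growth.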

Key:
Test in all cases: inhibition of tumour cell growth, NCI panel, 48 h
LOX IMVI melanoma = test system: LOX IMVI melanoma
UACC-62 melanoma = test system: UACC-62 melanoma
SW-620 colon = test system: SW-620 colon
DU-145 prostate = test system: DU-145 prostate
HCC-2998 colon = test system: HCC-2998 colon
TK-10 renal = test system: TK-10 renal
HOP-62 NSCLC = test system: HOP-62 NSCLC
EKVX NSCLC = test system: EKVX NSCLC
SF-268 CNS = test system: SF-268 CNS
SNB-19 CNS = test system: SNB-19 CNS

Compound	GI50 (LOX IMVI melanoma) [µM]	TGI (LOX IMVI melanoma) [µM]	GI50 (UACC-62 melanoma) [µM]	TGI (UACC-62 melanoma) [µM]	GI50 (SW-620 colon) [µM]	TGI (SW-620 colon) [µM]	GI50 (DU-145 prostate) [µM]	TGI (DU-145 prostate) [µM]	GI50 (HCC-2998 colon) [µM]	TGI (HCC-2998 colon) [µM]	GI50 (TK-10 renal) [µM]	TGI (TK-10 renal) [µM]	GI50 (HOP-62 NSCLC) [µM]	TGI (HOP-62 NSCLC) [µM]	GI50 (EKVX NSCLC) [µM]	TGI (EKVX NSCLC) [µM]	GI50 (SF-268 CNS) [µM]	TGI (SF-268 CNS) [µM]	GI50 (SNB-19 CNS) [µM]	TGI (SNB-19 CNS) [µM]
O=S(=O)(NC1=NCCN1C(=S)SN1CCn2c1nsc2=S)c1ccc(Oc2ccccc2)cc1	51	> 100	39.3	> 100	67	> 100	31.7	> 100	41.7	> 100	64.4	> 100	> 100	> 100	> 100	> 100	57.3	> 100	> 100	> 100
Cc1ccc(N)cc1[As]=[As]c1cc(N)ccc1C (stereo not given)	1.47	2.88	1.51	3	1.27	3.2	1.81	3.23	1.93	3.58	1.47	2.81	1.72	3.19			1.56	3.02	1.68	3.24
Brc1ccccc2cc(-c3ccccc3)nc1-2		21.4		23.7		> 36.2		> 63.3		10.8		30.8		42.9		40.4		28.7		40.7
CCN(CC)CCNC(=O)c1cccc2c1-c1ccccc1C2=O	> 100	> 100	> 100	> 100	90.1	> 100	> 100	> 100	> 100	> 100	> 100	> 100	> 100	> 100	> 100	> 100	> 100	> 100	> 100	> 100
CN1CCC2(CC1)N=C(SCC(=O)Nc1cnc3ccccc3c1)C(c1ccc(Br)cc1)=N2	1.66	3.11	1.71	3.21	1.88	3.65	3.24	10.4	1.85	3.42	1.99	4.49	3.42	14.7	2.51	10.2	3.46	14.7	2.58	7.83
CN1CCN(CCCNC(=O)c2c3c(n4ccccc24)C(=O)c2ncccc2C3=O)CC1	0.715	3.36	0.764	3	0.578	9.49	1.6	9.37	1.04	4.07	5.13	40.9	0.966	13.5	1.61	5.94	1.28	24.4	1.35	6.09
COC(=O)C1C(C(=O)O)C2(c3ccccc3)C(=O)C1(c1ccccc1)C(c1ccccc1)=C2c1ccccc1 (stereo not given)	27.8	89.7	15.5	29.9	19.8	40.2	16.9	34	15.7	29.6	39.2	99	21.2	41.4	18.8	42.3	20	53.1	11.7	29.5
NC(=O)c1c(NC(=O)c2cccs2)sc2c1CCC(=O)C2	2.44	14.2	0.811	4.43	0.809	16.8	4.13	> 100	4.13	48.9	6.33	> 100	3.65	> 100	2.54	87.1	3.21	> 100	3.49	> 100
COC(=O)[C@]12CC[C@@H](C)[C@H](C)[C@@H]1C1=CC[C@@H]3[C@@]4(C)C(C=O)=C[C@@](C)(CO)[C@@H]4[C@H](O)C[C@@]3(C)[C@]1(C)CC2	2.77	11.2	3.71	14.8	4.23	15.8	4.77	16.5	3.13	9.45	2.49	9.42	13.8	29.6	4.03	16	5.16	20.4	7.69	21.7
CCN1CCN(c2nc(C)cc(NCc3cc(Nc4ccnc5cc(Cl)ccc45)ccc3F)n2)CC1	1.02	2.34			1.78	4.81	3.23	12.1	1.78	3.89	2.39	6.04	1.58	4.57	3.03	14	1.89	5.79	2.91	13.1
CCCCC(=O)N(c1ccc(Nc2c3ccccc3nc3cc([N+](=O)[O-])ccc23)cc1)S(C)(=O)=O	3.05	17.4	7.12	26.1	5.73	31	1.67	74	14.1	30	7.61	> 84	4.52	52.5			6.58	> 77.7	7.39	> 100
CCc1nc(C)cn1C(=O)OCc1nc2nc(Cl)nc(N3CCOCC3)c2[nH]1	1.02	2.33	1.44	2.75	1.11	2.69	1.22	2.52	1.84	3.44	1.79	3.28	1.54	3.56	1.43	3.07	1.53	3.06	1.43	2.84
CC(=Nc1ccc(N(C)C)cc1)c1ccccc1				33.6		39.7		> 100		> 100		40.1		> 100		> 100				> 100
N#C/C(=C\c1cc(O)c(O)c(O)c1)C(N)=O		> 65.6		> 100		> 100		> 100		> 100		> 100		> 100		> 100		> 100		> 100
C/C(=N\NC(=O)c1ccncc1)c1sc(-n2nc(-c3ccccc3)cc2-c2ccccc2)nc1C		> 100		> 31.6		> 31.6		> 31.6		> 31.6		> 31.6		> 31.6		> 100		> 100		> 31.6
Nc1[nH]nc2nc(-c3cc(Cl)ccc3Cl)cc(-c3ccc(F)cc3)c12	19.3	38	16	32.4	25.4	68.7	23.6	53.8	19.1	36.1	52.9	> 100	22.7	47.8	17.5	58.3	18.2	43.6	35.7	> 100
COc1ccc2c(c1)C(=Nc1ccc(F)c(Cl)c1)c1c-2c(Nc2ccc(F)c(Cl)c2)nc2ccccc12	51.8	> 100	22.3	> 70.5	> 100	> 100	> 100	> 100	> 100	> 100	34.5	> 80	13.7	32.4	89.2	> 100	29.7	> 100	44.8	> 100
CC1(C)C(N2CCOCC2)CS1(=O)=O (stereo not given)		> 10		> 10		> 10		> 10		> 10		> 10		> 10		> 10		> 10		> 10
C#C[C@@]1(O)[C@@H](CO)O[C@@H](n2cc(Br)c3c(Cl)ccnc32)[C@@H]1O	0.289	2.15	15.6	> 100	0.552	> 100	0.454	4.79	2.89	> 100	> 67	> 100	1.31	> 100	17.3	> 100	10.5	> 100	1.54	> 100
C[C@@H](Nc1cc(F)cc(F)c1)c1cc(C(=O)N(C)C)cc2c(=O)cc(N3CCOCC3)oc12	8.72	> 100	1.13	20.9	25.1	> 100	33.1	> 100	10.4	> 100	2.64	> 100	7.13	> 100			22.4	> 100	10.7	> 100
COc1cc(OCc2ccccc2)c2c(CCC(=O)O)cc(=O)oc2c1 (tested in a mixture with another compound)		> 100		> 100		> 100		> 100		> 100		96.6				> 100		> 100		> 100
COc1ccc(OC)c(Nc2nc3nonc3nc2Nc2cccc(Br)c2)c1	1.93	> 100	0.301	14.1	0.86	> 100	3.4	> 100	0.818	> 100	0.988	16.5	1.62	7.43			0.982	> 100	0.692	19.1
COc1cc(-c2nn(-c3ccc(NC(=O)Nc4cc(C(F)(F)F)cc(C(F)(F)F)c4)cc3)cc2-c2ccncc2)ccc1Cl			1.55	3.4	1.87	3.84	3.39	11.2	2.21	5.38	3.13	9.3	1.51	3.1	1.43	3.48	2.47	7.3	1.8	3.88
NCCCNc1nc2ccccc2c2c(=O)c3cc(F)ccc3sc12	1.43	2.83	1.62	3.01	1.64	3.27	1.73	3.21	1.64	3.14			1.43	3.15	1.57	3.01	1.45	3.12		
Cc1ccc(C[As+](c2ccccc2)(c2ccccc2)c2ccccc2)cc1	1.41	6.85	0.371	12.6	0.99	> 38.1	1.36	> 56.8	0.645	19.6	2.01	20.5	1.5	32.9			1.08	> 42.2	0.978	> 76.8
COc1cccc(Nc2ncnc3cc(NC(=O)CCl)ccc23)c1			1.13	2.48	0.612	2.1	1.23	2.6	1.81	3.7	1.2	2.52	1.48	3.06	1.56	4.49	1.42	3.24	1.5	3.22
COc1ccc(Cn2cc(COc3cc(/C=C/C(=O)c4cc(OC)c(OC)c(OC)c4)ccc3OC)nn2)cc1	3.22	> 100	4.19	> 100	3.63	> 100	2.41	5.2	3.9	> 100	3.7	26.3	2.72	7.97			3.75	> 100	5.99	> 100
